In patent publication US11395798B2, “O/W type emulsion” (NOF CORPORATION, priority 2015, dated 2022):

Assay: not given
Conditions: water/octanol; cited from earlier work

Molecule	Log Pow
CCCCCCCCCCCCCCCC(=O)Oc1ccc2c(C)cc(=O)oc2c1 [4-methylumbelliferone palmitate]	7.92
CC(C)Oc1ccc2c(=O)c(-c3ccccc3)coc2c1 [ipriflavone]	4.25
c1ccc2c(c1)Sc1ccccc1N2CC1CN2CCC1CC2 (centres unmarked) [mequitazine]	5.20
C[C@H](CCC(=O)O)[C@H]1CC[C@H]2[C@@H]3[C@@H](O)C[C@@H]4C[C@H](O)CC[C@]4(C)[C@H]3CC[C@]12C [ursodeoxycholic acid]	4.76
C=C1CC[C@H](O)C/C1=C/C=C1\CCC[C@]2(C)[C@@H]([C@H](C)CCCC(C)C)CC[C@@H]12 [cholecalciferol]	9.08
O=C(COCCOCCOCC(=O)Nc1c(I)cc(I)c(C(=O)O)c1I)Nc1c(I)cc(I)c(C(=O)O)c1I [iotroxatic acid]	4.32
CCCCCCCCCCCCCCCC(=O)OC/C=C(C)/C=C/C=C(C)/C=C/C1=C(C)CCCC1(C)C [retinol palmitate]	14.32
CCCC(=O)OC[C@@H](OC(=O)CCC)[C@@H](OC(=O)CCC)[C@H](Cn1c2nc(=O)[nH]c(=O)c-2nc2cc(C)c(C)cc21)OC(=O)CCC [riboflavin butyrate]	6.25
CCC(C)(Oc1ccc(C2(c3ccc(OC(C)(CC)C(=O)O)cc3)CCCCC2)cc1)C(=O)O (centres unmarked) [clinofibrate]	6.33
COc1ccc2c(c1)c(CC(=O)O)c(C)n2C(=O)c1ccc(Cl)cc1 [indomethacin]	4.25
CC(C)=CCN1CCC2(C)c3cc(O)ccc3CC1C2C (centres unmarked) [pentazocine]	4.15
tocopherol	10.96
COC(=O)[C@H]1[C@H]2C[C@@H]3c4[nH]c5cc(OC)ccc5c4CCN3C[C@H]2C[C@@H](OC(=O)c2cc(OC)c(OC)c(OC)c2)[C@@H]1OC [reserpine]	4.45
[H]/N=C(\N/C(=N/[H])NCCCCCCNC(=N)NC(=N)Nc1ccc(Cl)cc1)Nc1ccc(Cl)cc1 [chlorhexidine]	4.58
CCCCCCCCCCCCCCCC(=O)OC[C@@H](NC(=O)C(Cl)Cl)[C@H](O)c1ccc([N+](=O)[O-])cc1 [chloramphenicol palmitate]	8.69
CC1=C(C/C=C(\C)CCC[C@H](C)CCC[C@H](C)CCCC(C)C)C(=O)c2ccccc2C1=O [phytonadione]	10.31
CC(C)=CCC/C(C)=C/CC/C(C)=C/CC/C(C)=C/CC1=C(C)C(=O)c2ccccc2C1=O [menatetrenone]	8.79
COC(=O)C1=C(C)NC(C)=C(C(=O)OC2CCCN(Cc3ccccc3)C2)C1c1cccc([N+](=O)[O-])c1 (centres unmarked) [benidipine]	5.56
CCC(=O)O[C@@H]1CC(=O)O[C@H](C)C/C=C/C=C/[C@H](OC(C)=O)[C@H](C)C[C@H](CC=O)[C@H](O[C@@H]2O[C@H](C)[C@@H](O[C@H]3C[C@@](C)(OC(C)=O)[C@@H](OC(=O)CC)[C@H](C)O3)[C@H](N(C)C)[C@H]2O)[C@H]1OC [midecamycin acetate]	5.58
retinol acetate	7.19
C#C[C@]1(O)CC[C@H]2[C@@H]3CCc4cc(OC)ccc4[C@H]3CC[C@@]21C [mestranol]	4.94
COc1ccc2c(c1)c(CC(=O)OCC(=O)O)c(C)n2C(=O)c1ccc(Cl)cc1 [acemetacin]	4.49
CCCCCCC(=O)OCCN1CCN(CCCN2c3ccccc3Sc3ccc(C(F)(F)F)cc32)CC1 [fluphenazine enanthate]	7.29

Molecule	Log Pow
C[C@]12CC[C@@H]3c4ccc(OC(=O)c5ccccc5)cc4CC[C@H]3[C@@H]1CC[C@@H]2O [estradiol benzoate]	5.10
CC(C)(C)c1ccc(C(=O)CCCN2CCC(OC(c3ccccc3)c3ccccc3)CC2)cc1 [ebastine]	6.81
Clc1ccccc1C(c1ccccc1)(c1ccccc1)n1ccnc1 [clotrimazole]	4.93
CC(C(=O)O)c1ccc2c(c1)CC(=O)c1ccccc1S2 (centres unmarked) [zaltoprofen]	4.25
C=C1CC[C@H](O)C/C1=C/C=C1\CCC[C@]2(C)[C@@H]([C@H](C)/C=C/[C@H](C)C(C)C)CC[C@@H]12 [ergocalciferol]	9.15
CC(=O)Oc1c(C)c(C)c2c(c1C)CCC(C)(CCC[C@H](C)CCC[C@H](C)CCCC(C)C)O2 (some centres unmarked) [tocopheryl acetate]	10.69
C#C[C@]1(O)CC[C@H]2[C@@H]3CCC4=Cc5oncc5C[C@]4(C)[C@H]3CC[C@@]21C [danazol]	4.94
Cc1cccc(N(C)C(=S)Oc2ccc3ccccc3c2)c1 [tolnaftate]	5.14
c1ccc(-c2ccc(C(c3ccccc3)n3ccnc3)cc2)cc1 (centres unmarked) [bifonazole]	4.69
CCC(=O)OCC(=O)[C@@]1(OC(=O)CC)[C@@H](C)C[C@H]2[C@@H]3CCC4=CC(=O)C=C[C@]4(C)[C@@]3(Cl)[C@@H](O)C[C@@]21C [beclopetasone propionate]	4.07
CCC(C)n1ncn(-c2ccc(N3CCN(c4ccc(OCC5COC(Cn6cncn6)(c6ccc(Cl)cc6Cl)O5)cc4)CC3)cc2)c1=O (centres unmarked) [itraconazole]	5.00
COc1ccccc1OCCNCC(O)COc1cccc2[nH]c3ccccc3c12 (centres unmarked) [carvedilol]	4.07
COC1(O[C@H]2CC[C@H]3[C@@H]4CC[C@H]5C[C@@H]6S[C@@H]6C[C@]5(C)[C@H]4CC[C@]23C)CCCC1 [mepitiostane]	6.89
CCOc1nc2cccc(C(=O)OC(C)OC(=O)OC3CCCCC3)c2n1Cc1ccc(-c2ccccc2-c2nnn[nH]2)cc1 (centres unmarked) [candesartancilexetil]	7.21
C#C[C@]1(O)CC[C@H]2[C@@H]3CCc4cc(O)ccc4[C@H]3CC[C@@]21C [ethinylestradiol]	4.11
COC1=C(OC)C(=O)C(C/C=C(\C)CC/C=C(\C)CC/C=C(\C)CC/C=C(\C)CC/C=C(\C)CC/C=C(\C)CC/C=C(\C)CC/C=C(\C)CC/C=C(\C)CCC=C(C)C)=C(C)C1=O [ubidecarenone]	19.12
C=CC[C@@H]1/C=C(\C)C[C@H](C)C[C@H](OC)[C@H]2O[C@@](O)(C(=O)C(=O)N3CCCC[C@H]3C(=O)O[C@H](/C(C)=C/[C@@H]3CC[C@@H](O)[C@H](OC)C3)[C@H](C)[C@@H](O)CC1=O)[C@H](C)C[C@@H]2OC [tacrolimus]	4.79
CCc1oc2ccccc2c1C(=O)c1cc(Br)c(O)c(Br)c1 [benzbromarone]	6.65
Cc1cccc(Nc2ccccc2C(=O)O)c1C [mefenamic acid]	4.83
Cc1cc(O)c2c(c1)O[C@@]1(C)CC[C@H]3C(C)(C)CCC[C@]34CO[C@@H]2[C@H]41 [siccanin]	6.10
O=c1[nH]c2ccccc2n1C1CCN(CCCC(c2ccc(F)cc2)c2ccc(F)cc2)CC1 [pimozide]	5.76
CCCCC(=O)O[C@]1(C(=O)CO)[C@@H](C)C[C@H]2[C@@H]3CCC4=CC(=O)C=C[C@]4(C)[C@@]3(F)[C@@H](O)C[C@@]21C [betamethasone valerate]	4.14

Assay: particle size distribution by dynamic light scattering (Zetasizer Nano ZS)
Format: physicochemical
Conditions: B-2:helper lipid:Cholesterol=3:4:3, 15 mol % DMG-PEG2000; malic acid buffer pH 3.0
Description: The particle size distribution of the prepared emulsion was measured by dynamic light scattering using Zetasizer Nano ZS. The measurement conditions were 1 mM emulsion (40 μL) at 25° C. As a result, in all compositions, the volume median diameter was not more than 100 nm and, when a linear head was used (i.e., the formula (I) wherein X^a and X^b are each X^1), the particle size was not more than 50 nm. The drug recovery rate was not less than 85% (FIG. 1, Table 2).
EPC and Cholesterol were mixed to achieve 1000 nmol and a PEG lipid was added. Chloroform in an amount equal to that of the lipid ethanol solution was added and the mixture was dried under a nitrogen blow. PBS (1 mL) was added to the lipid membrane after drying and the mixture was stood for 10 min and sonicated by a bath-type sonicator for 3 min to give a particle suspension. The particle size distribution of the prepared particles was measured by dynamic light scattering in the same manner as in Example 1.
The particle size distribution of the produced emulsion solution was measured by dynamic light scattering similarly to Example 1. As a result, when DOPC was used, the volume median diameter was near 40 nm irrespective of pH.
An ethanol solution containing 500 nmol as a total of cationic B-2, DOPE, and Cholesterol was prepared, and a PEG lipid was added in the above-mentioned amount. Ethanol was added to make the total amount 200 μL, and the mixture was stood at ice temperature for 15 min. A similarly ice-cooled malic acid buffer (20 mM, pH 3.0, 0-1000 mM NaCl) (200 μL) was mixed within 3 sec under vortex. PBS (NISSUI) (3600 μL) was immediately added thereto. The mixture was subjected to ultrafiltration using Amicon Ultra (Millipore). The centrifugation conditions were 1000 G, 25° C. An operation including addition of 3200 μL of PBS after centrifugation for 10 min was repeated twice and the sample was concentrated to about 500 μL. The concentrate was diluted with PBS to a mass of 1000 mg to give a 0.5 mM (lipid concentration) emulsion. The particle size distribution of the produced emulsion solution was measured by dynamic light scattering similarly to Example 1.
The volume median diameter and the surface potential were measured using the dynamic light scattering (Zetasizer Nano; Malvern) in the same manner as in Example 1.
The average particle size of the produced particles was measured in the same manner as in Example 1 and the results are shown in Table 7.

Molecule	volume median diameter [nm]
CCCCCCCC/C=C\CCCCCCCC(=O)OC[C@H](COP(=O)([O-])OCC[N+](C)(C)C)OC(=O)CCCCCCC/C=C\CCCCCCCC [DOPC, dioleoylphosphatidylcholine]	41.5

Same assay, conditions: B-2:helper lipid:Cholesterol=3:4:3, 15 mol % DMG-PEG2000; malic acid buffer pH 4.0

Molecule	volume median diameter [nm]
CCCCCCCC/C=C\CCCCCCCC(=O)OC[C@H](COP(=O)([O-])OCC[N+](C)(C)C)OC(=O)CCCCCCC/C=C\CCCCCCCC [DOPC, dioleoylphosphatidylcholine]	40.5

Same assay, conditions: B-2:helper lipid:Cholesterol=3:4:3, 15 mol % DMG-PEG2000; malic acid buffer pH 5.0

Molecule	volume median diameter [nm]
CCCCCCCC/C=C\CCCCCCCC(=O)OC[C@H](COP(=O)([O-])OCC[N+](C)(C)C)OC(=O)CCCCCCC/C=C\CCCCCCCC [DOPC, dioleoylphosphatidylcholine]	45.6

Same assay, conditions: B-2:helper lipid:Cholesterol=3:4:3, 15 mol % DMG-PEG2000; pH 3.0

Molecule	PdI
CCCCCCCC/C=C\CCCCCCCC(=O)OC[C@H](COP(=O)([O-])OCC[N+](C)(C)C)OC(=O)CCCCCCC/C=C\CCCCCCCC [DOPC, dioleoylphosphatidylcholine]	0.319

Same assay, conditions: B-2:helper lipid:Cholesterol=3:4:3, 15 mol % DMG-PEG2000; pH 4.0

Molecule	PdI
CCCCCCCC/C=C\CCCCCCCC(=O)OC[C@H](COP(=O)([O-])OCC[N+](C)(C)C)OC(=O)CCCCCCC/C=C\CCCCCCCC [DOPC, dioleoylphosphatidylcholine]	0.214

Same assay, conditions: B-2:helper lipid:Cholesterol=3:4:3, 15 mol % DMG-PEG2000; pH 5.0

Molecule	PdI
CCCCCCCC/C=C\CCCCCCCC(=O)OC[C@H](COP(=O)([O-])OCC[N+](C)(C)C)OC(=O)CCCCCCC/C=C\CCCCCCCC [DOPC, dioleoylphosphatidylcholine]	0.196

Same assay, conditions: B-2:helper lipid:Cholesterol=3:4:3; irrespective of pH (3.0-5.0)

Molecule	volume median diameter
CCCCCCCC/C=C\CCCCCCCC(=O)OC[C@H](COP(=O)([O-])OCC[N+](C)(C)C)OC(=O)CCCCCCC/C=C\CCCCCCCC [DOPC, dioleoylphosphatidylcholine]	about 40 nm

Same assay, conditions: O/W emulsion cationic lipid:DOPE:Cholesterol=3:4:3, 4-Methylumbelliferon 10 mol %, DMG-PEG2000 10 mol %, DSG-PEG2000 2.5 mol %

Molecule	PdI
CCCCC/C=C\C/C=C\CCCCCCCC(=O)OCCCN(C)CCSSCCN(C)CCCOC(=O)CCCCCCC/C=C\C/C=C\CCCCC [B-2-3]	0.419
Cc1c(C)c2c(c(C)c1OC(=O)CCC(=O)OCCC1CCN(CCSSCCN3CCC(CCOC(=O)CCC(=O)Oc4c(C)c(C)c5c(c4C)CCC(C)(CCCC(C)CCCC(C)CCCC(C)C)O5)CC3)CC1)CCC(C)(CCCC(C)CCCC(C)CCCC(C)C)O2 (centres unmarked) [TS-P4C2]	0.063

Same assay, conditions: O/W emulsion cationic lipid:DOPE:Cholesterol=3:4:3, 4-Methylumbelliferon 10 mol %, DMG-PEG2000 10 mol %, DSG-PEG2000 2.5 mol %; 1 mM, 25° C.

Molecule	volume median diameter [nm]
CCCCC/C=C\C/C=C\CCCCCCCC(=O)OCCCN(C)CCSSCCN(C)CCCOC(=O)CCCCCCC/C=C\C/C=C\CCCCC [B-2-3]	34.3
Cc1c(C)c2c(c(C)c1OC(=O)CCC(=O)OCCC1CCN(CCSSCCN3CCC(CCOC(=O)CCC(=O)Oc4c(C)c(C)c5c(c4C)CCC(C)(CCCC(C)CCCC(C)CCCC(C)C)O5)CC3)CC1)CCC(C)(CCCC(C)CCCC(C)CCCC(C)C)O2 (centres unmarked) [TS-P4C2]	87.9
